Columns and labels:
[1] = biological target: NK1 receptors (Homo sapiens, UniProt P25103); experiment: Binding of [4,5-3H-Leu10] substance P to human recombinant NK1 receptors expressed in CHO cell membranes; parameters: host or cells: CHO cells; settings: pIC50 = -log IC50, concentration inhibiting by 50% the specific binding of [4,5-3H] substance P; tested as the free base/salt given in c1
Experimental: The following test was designed to assess the affinity of test substances for human recombinant NK1 receptors expressed in Chinese Hamster Ovarian (CHO) cells.
CHO cells expressing the human recombinant NK1 receptor are used. The cells were obtained from Euroscreen (Brussels, Belgium).
Cells expressing the human NK1 receptor are routinely cultured in 175 cm2 flasks containing 75 ml of medium F12 (Ham) enriched with 2 mmol/l L-glutamine, 100 IU/ml penicilline, 100 μg/ml streptomycine, 1% sodium pyruvate, 2.5 μg/ml fungizone amphotericin B, 400 μg/ml geneticin and supplemented with 10% foetal calf serum. […] When subcultured, the cells are seeded at a concentration of 50,000 cells/cm2.
Confluent cells are gently scraped and resuspended in 25 ml of phosphate buffered saline without calcium and magnesium. The cellular suspension is centrifuged at 1500×g for 3 min (4° C.). The cell pellet is homogenized in a 15 mmol/l Tris-HCl (pH 7.5) buffer, 2 mmol/l MgCl2, 0.3 mmol/l EDTA, 1 mmol/l EGTA. The crude membrane fraction is collected by two consecutive centrifugation steps at 40,000×g for 25 min (4° C.). The final pellet is resuspended in 20 mmol/l Tris-HCl (pH 7.4), 250 mmol/l sucrose buffer at a protein concentration ranging from 2 to 6 mg/ml and stored in liquid nitrogen. • 1.2.2. Test Design
The inhibition constant (Ki) is determined using increasing concentrations of the test substance. The concentration range usually encompasses 6 log units with variable steps (0.3 to 1 log). Assays are performed in mono- or duplicate.
Membranes are incubated at 25° C. for 60 min in 0.5 ml of a 50 mmol/l Tris-HCl buffer (pH 7.4) containing 2 mmol/l MgCl2, 100 μg/ml bacitracine, 0.1 to 0.4×10^−9 mol/l of [4,5^3H-Leu^10] substance P (specific activity>100 Ci/mmol) and increasing concentrations of the test substance. […] Membrane-bound and free radioligands are separated by rapid filtration through glass fiber filters (equivalent to Whatman GF/C or GF/B; VEL, Belgium) presoaked in 0.1% polyethyleneimine to reduce non specific binding. Samples and filters are rinsed by at least 6 ml of 50 mmol/l Tris-HCl (pH 7.4) buffer.
Initial values for the different variables may be provided by the experimenter.

[2] = system: verapamil binding site of the L-type calcium channel; experiment: Inhibition of [3H]D888 binding to the verapamil binding site of the L-type calcium channel (rat cerebral cortex membranes); settings: 10 μmol/l of test substance
Experimental: 200-250 g male Sprague-Dawley rats are sacrificed by decapitation. Cerebral cortices are quickly dissected on ice and homogenized in a 20 mmol/l Tris-HCl (pH 7.4) buffer containing 250 mmol/l sucrose (buffer A). The homogenate is centrifuged at 30,000 g for 15 min at 4° C. The resulting crude membrane pellet is resuspended in a 50 mmol/l Tris-HCl (pH 7.4) buffer and incubated 15 min at 37° C. before being centrifuged at 30,000×g for 15 min at 4° C. After two more washes under the same conditions, the final pellet is resuspended in buffer A at a protein concentration ranging from 15 to 25 mg/ml and stored in liquid nitrogen.
Binding experiments are essentially performed according to Reynolds J. et al., J. Pharmacol. Exp. Ther. (1986), 237, 731-738. (1986) with slight modifications.
Membranes (120-175 μg/assay) are incubated at 25° C. for 60 min in 0.5 ml of a 50 mmol/l Tris-HCl buffer (pH 7.4) containing 2 mmol/l MgCl2, 0.2 to 0.4×10-9 mol/l of [^3H]D888 (85 Ci/mmol; Amersham, Belgium) and 10 μmol/l of the test substance. The non specific binding (NSB) is defined as the residual binding observed in the presence 10 μM verapamil. Membrane-bound and -free radioligands are separated by rapid filtration through glass fiber filters (equivalent to Whatman GF/C or GF/B; VEL, Belgium) presoaked in 0.1% polyethyleneimine to reduce non specific binding. Samples and filters are rinsed by at least 6 ml of 50 mmol/l Tris-HCl (pH 7.4) buffer. […] The radioactivity trapped onto the filters is counted by liquid scintillation in a β-counter.
The inhibition of the radioligand specific binding is calculated as follows: [formula] • where BI and Bo represent the binding observed in the presence and absence of the test substance respectively; and • BNS is the non specific binding.
Data analysis is performed by a computerized non linear curve fitting method using a set of equations describing several binding models assuming competitive interactions between ligands (Weiland G. A. and P. B. Molinoff Life Science (1981), 29, 313-330; Molinoff P. et al. (1981) Life Sci., 29, 427-443).

[3] = system: isolated rat aorta contracted by 100 mM KCl; experiment: Effect of compound on isolated rat aorta contracted by 100 mM KCl; settings: 10^−5 M; contraction by 100 mM KCl
Experimental: Rat thoracic aorta depolarized by 100 mM KCl develops a contraction induced by an influx of Ca^2+ into the smooth muscle cell. An inhibition of this contraction could predict a Ca^2+ antagonist activity.
The method was adapted from Polster P. et al., J. Pharmacol. Exp. Ther. (1990), 255, 593: rings of thoracic aorta were prepared from male Wistar rats (250-400 g) and mounted under an optimal resting tension of 2 g in 10 ml organ baths containing modified Krebs' solution (NaCl 112 mM, NaHCO3 25 mM, KCl 5 mM, MgSO4 1.2 mM, CaCl2 2.5 mM, KH2PO4 1 mM and glucose 11.5 mM, pH 7.4). The bathing solution was maintained at a temperature of 37° C. and gassed with 95% O2 and 5% CO2. Isometric contractions were measured with a force transducer connected to an amplifier. A computer system was used to control data acquisition and fluid circulation through electrovalves. Drugs were manually injected into the bath.
Each ring was allowed to equilibrate for 60 min in the modified Krebs' solution. […] After obtaining two reproducible control contractions, a 3rd contraction was induced and the test compound was added to the bathing medium for 2 hours. Only preparation in which the contractions were matched were used. Each tissue received only one concentration of the test compound. Appropriate control experiments were conducted in order to test the effect of the solvant.
To normalize data, the change in tension due to the drug was compared to the change of tension due to the solvant and expressed as percentage of the induced relaxation of the initial contraction. Raw data were processed by a computer system and the pD′2 value was calculated following the method of Van Rossum J. M. et al., Arch. Int. Pharmacodyn. Ther. (1963), 143, 299.

Sequence of NK1 receptors (P25103 whole entry): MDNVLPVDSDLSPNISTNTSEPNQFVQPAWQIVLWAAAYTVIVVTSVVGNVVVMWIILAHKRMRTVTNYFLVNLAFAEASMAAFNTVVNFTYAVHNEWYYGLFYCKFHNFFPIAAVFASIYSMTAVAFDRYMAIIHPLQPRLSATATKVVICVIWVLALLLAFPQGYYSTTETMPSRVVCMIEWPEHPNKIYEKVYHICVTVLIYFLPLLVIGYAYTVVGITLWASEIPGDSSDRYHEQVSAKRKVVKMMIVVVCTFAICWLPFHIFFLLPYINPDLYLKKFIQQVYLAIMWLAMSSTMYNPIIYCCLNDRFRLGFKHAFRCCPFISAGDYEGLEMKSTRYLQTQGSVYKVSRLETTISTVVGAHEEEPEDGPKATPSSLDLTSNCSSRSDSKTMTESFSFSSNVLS

Compound	IC50 [1] [nM]	% inhibition of [3H]D888 binding to the verapamil binding site of the L-type calcium channel [2]	Result: effect of compound on isolated rat aorta contracted by 100 mM KCl [3]
Cc1ccc(S(=O)(=O)NC(=O)OCCN2CCN(C(COCc3cc(C(F)(F)F)cc(C(F)(F)F)c3)c3ccccc3)CC2)cc1 (centres unmarked) [Compound 307, N-p-toluenesulfonic-carbamic acid 2-{4-[2-(3,5-bis-trifluoromethyl-benzyloxy)-1-phenyl-ethyl]-piperazin-1-yl}-ethyl ester]	15.8	+ (+: inhibition comprised between 20 and 50%)	
Fc1ccc(C(COCc2cc(C(F)(F)F)cc(C(F)(F)F)c2)N2CCN(CCCCc3nnn[nH]3)CC2)cc1 (centres unmarked) [Compound 301]	15.8	+ (+: inhibition comprised between 20 and 50%)	inactive à 10^−5 M
CC(OCC(c1ccccc1)N1CCN(CC(=O)O)CC1)c1cc(C(F)(F)F)cc(C(F)(F)F)c1 (single isomer, unassigned) [Compound 273]	3.16	0 (0: inhibition < 20%)	
O=C(O)CCCCCN1CCN(C(COCc2cc(C(F)(F)F)cc(C(F)(F)F)c2)c2ccccc2)CC1 (racemic) [Compound 234, 6-{4-[2-(3,5-Bis-trifluoromethyl-benzyloxy)-1-phenyl-ethyl]-piperazin-1-yl}-hexanoic acid]	15.8	0 (0: inhibition < 20%)	
CNC(=O)CN1CCN(C(COCc2cc(C(F)(F)F)cc(C(F)(F)F)c2)c2ccccc2)CC1 (racemic) [Compound 292, 2-{4-[2-(3,5-Bis-trifluoromethyl-benzyloxy)-1-phenyl-ethyl]-piperazin-1-yl}-N-methyl-acetamide]	15.8	+ (+: inhibition comprised between 20 and 50%)	
O=C(COCCN1CCN(C(COCc2cc(C(F)(F)F)cc(C(F)(F)F)c2)c2ccccc2)CC1)NS(=O)(=O)c1ccccc1 (centres unmarked) [Compound 306, N-[(2-{4-[2-(3,5-Bis-trifluoromethyl-benzyloxy)-1-phenyl-ethyl]-piperazin-1-yl}-ethoxy)-acetyl]-benzenesulfonamide]	31.6	+ (+: inhibition comprised between 20 and 50%)	
O=C(O)CN1CCN([C@@H](COCc2cc(C(F)(F)F)cc(C(F)(F)F)c2)c2ccccc2)CC1 [Compound 231]	79.4	0 (0: inhibition < 20%)	
O=C(O)CN1CCN(C(COCc2cc(C(F)(F)F)cc(C(F)(F)F)c2)c2ccc(Br)cc2)CC1 (racemic) [Compound 250]	79.4	+ (+: inhibition comprised between 20 and 50%)	
N#CCN1CCN([C@H](COCc2cc(C(F)(F)F)cc(C(F)(F)F)c2)c2ccccc2)CC1 [Compound 291, (S)-{4-[2-(3,5-Bis-trifluoromethyl-benzyloxy)-1-phenyl-ethyl]-piperazin-1-yl}-acetonitrile]	25.1	0 (0: inhibition < 20%)	
O=C(O)C1CCC(N2CCN(C(COCc3cc(C(F)(F)F)cc(C(F)(F)F)c3)c3ccccc3)CC2)CC1 (stereo not drawn) [Compound 313, cis- or trans-4-{4-[2-(3,5-Bis-trifluoromethyl-benzyloxy)-1-phenyl-ethyl]-piperazin-1-yl}-cyclohexanecarboxylic acid]	15.8	0 (0: inhibition < 20%)	
CC(OCC(c1ccccc1)N1CCN(CC(=O)O)CC1)c1cc(C(F)(F)F)cc(C(F)(F)F)c1 (single isomer, unassigned) [Compound 274]	12.6	0 (0: inhibition < 20%)	
O=C(O)COCCN1CCN([C@@H](COCc2cc(C(F)(F)F)cc(C(F)(F)F)c2)c2ccccc2)CC1 [Compound 237]		0 (0: inhibition < 20%)	inactive à 10^−5 M
O=C(O)C(c1ccccc1)N1CCN([C@H](COCc2cc(C(F)(F)F)cc(C(F)(F)F)c2)c2ccccc2)CC1 (mixture of isomers) [Compound 244]	39.8	−+ (+: inhibition comprised between 20 and 50%)	
C[C@@H](OC[C@@H](c1ccccc1)N1CCN(CCOCC(=O)O)CC1)c1cc(C(F)(F)F)cc(C(F)(F)F)c1 [Compound 281]		+ (+: inhibition comprised between 20 and 50%)	inactive à 10^−5 M
CC(OCC(c1ccccc1)N1CCN(CCCCc2nnn[nH]2)CC1)c1cc(C(F)(F)F)cc(C(F)(F)F)c1 (centres unmarked) [Compound 302]	3.98	+ (+: inhibition comprised between 20 and 50%)	
CS(=O)(=O)NC(=O)COCCN1CCN(C(COCc2cc(C(F)(F)F)cc(C(F)(F)F)c2)c2ccccc2)CC1 (centres unmarked) [Compound 305, N-[(2-{4-[2-(3,5-Bis-trifluoromethyl-benzyloxy)-1-phenyl-ethyl]-piperazin-1-yl}-ethoxy)-acetyl]-methanesulfonamide]	79.4	0 (0: inhibition < 20%)	
O=C(O)c1ccccc1CN1CCN(C(COCc2cc(C(F)(F)F)cc(C(F)(F)F)c2)c2ccccc2)CC1 (racemic) [Compound 241]	7.94	+ (+: inhibition comprised between 20 and 50%)	

Source: patent publication US6916797B2, “α-arylethylpiperazine derivatives as neurokinin antagonists” (UCB, S.A., priority 2000, dated 2005)
